Source: patent US9609868B2, “Alkoximino-substituted anthranilic acid diamides as pesticides” (BAYER CROPSCIENCE AKTIENGESELLSCHAFT, priority 2013, dated 2017)

Legend:
Phaedon cochleariae = Phaedon cochleariae - spray test (PHAECO); format: in vivo; conditions: application rate 100 g/ha, Chinese cabbage leaf disks
In short: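 Active compound in acetone/dimethylformamide with alkylaryl polyglycol ether emulsifier was diluted with emulsifier-containing water to the test concentration and sprayed. After the set period, efficacy was scored as % larvae killed (100% = all beetle larvae dead, 0% = none).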

Myzus persicae = Myzus persicae - spray test (MYZUPE); format: in vivo; conditions: application rate 100 g/ha, Chinese cabbage leaf disks
In short: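 Chinese cabbage leaf disks carrying all stages of green peach aphid were sprayed with compound in acetone/DMF with emulsifier, diluted in water. After the chosen period, efficacy was scored as % aphids killed.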

Spodoptera frugiperda = Spodoptera frugiperda - spray test (SPODFR); format: in vivo; conditions: application rate 100 g/ha, maize leaf disks
In short: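 Maize leaf disks sprayed with compound in acetone/DMF with alkylaryl polyglycol ether emulsifier, diluted in water to test concentration, then infested with armyworm caterpillars once dry. Efficacy given as % caterpillars killed (100% all, 0% none) after the chosen period.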

Tetranychus urticae = Tetranychus urticae - spray test, OP-resistant (TETRUR); format: in vivo; conditions: application rate 100 g/ha, bean leaf disks
Description: Tetranychus urticae—Spray Test, OP-Resistant (TETRUR)
Solvent: 78.0 parts by weight of acetone • • 1.5 parts by weight of dimethylformamide
Emulsifier: 0.5 parts by weight of alkylaryl polyglycol ether
To produce a suitable active compound preparation, 1 part by weight of active compound is mixed with the stated amounts of solvent and emulsifier, and the concentrate is diluted with emulsifier-containing water to the desired concentration.
Disks of bean leaves (Phaseolus vulgaris) infested with all stages of the greenhouse red spider mite (Tetranychus urticae) are sprayed with an active compound preparation of the desired concentration.
After the desired period of time, the efficacy in % is determined. 100% means that all the spider mites have been killed; 0% means that none of the spider mites have been killed.

[1] = log P by HPLC on reversed-phase column (C18), EEC directive 79/831 Annex V.A8; format: physicochemical; conditions: HPLC reversed-phase C18, 43° C., data refer to the E isomer
Description: The log P values reported in the tables and Preparation Examples above were determined in accordance with EEC directive 79/831 Annex V.A8 by HPLC (High Performance Liquid Chromatography) using a reversed-phase column (C18). Temperature 43° C. The calibration is effected with unbranched alkan-2-ones (having 3 to 16 carbon atoms), for which the log P values are known.

Lucilia cuprina = Lucilia cuprina test (LUCICU); format: in vivo; conditions: application rate 100 ppm
Description: Lucilia cuprina-Test (LUCICU)
(§1) Solvent: dimethyl sulfoxide
To produce a suitable preparation of active compound, 10 mg of active compound are mixed with 0.5 ml of dimethyl sulfoxide, and the concentrate is diluted with water to the desired concentration.
About 20 L1 larvae of the Australian sheep blowfly (Lucilia cuprina) are transferred into a test vessel containing minced horsemeat and the active compound preparation of the desired concentration.
After the desired time, the kill in % is determined. 100% means that all the larvae have been killed; 0% means that no larvae have been killed.

Boophilus microplus = Boophilus microplus - injection test (BOOPMI Inj); format: in vivo; conditions: application rate 20 μg/animal, injection into engorged adult female cattle ticks
Description: Boophilus microplus—Injection Test (BOOPMI Inj)
as §1
To produce a suitable preparation of active compound, 10 mg of active compound are mixed with 0.5 ml of solvent and the concentrate is diluted with solvent to the desired concentration.
1 μl of the active compound solution is injected into the abdomen of 5 engorged adult female cattle ticks (Boophilus microplus). The animals are transferred into dishes and kept in a climate-controlled room.
The activity is assessed after the desired time by laying of fertile eggs. Eggs which are not visibly fertile are stored in a climate-controlled cabinet until the larvae hatch after about 42 days. An efficacy of 100% means that none of the ticks has laid any fertile eggs; 0% means that all the eggs are fertile.

SMILES	efficacy (beetle larvae killed) (Phaedon cochleariae) [%]	efficacy (aphids killed) (Myzus persicae) [%]	efficacy (caterpillars killed) (Spodoptera frugiperda) [%]	efficacy (spider mites killed) (Tetranychus urticae) [%]	log p ([1]; Table A)	log p ([1]; Table B)	efficacy (kill of L1 larvae) (Lucilia cuprina) [%]	efficacy (no fertile eggs laid) (Boophilus microplus) [%]	log p ([1]; Table C)
CON=Cc1cc(C)c(NC(=O)c2cc(OC)nn2-c2ncccc2Cl)c(C(=O)NN(C)C(=O)OC)c1 (mixture of isomers) [A-43]	100	100	100	100	2.19				
CON=Cc1cc(C)c(NC(=O)c2cc(C(F)(F)F)nn2-c2ncccc2Cl)c(C(=O)NN(C)C(=O)OC)c1 (mixture of isomers) [A-46]	100	90	100	100	2.85				
CON=Cc1cc(C)c(NC(=O)c2cc(Br)nn2-c2ncccc2Cl)c(C(=O)NC2(C)CSC2)c1 (mixture of isomers) [B-01]	100	90	100	100		3.22			
CON=Cc1cc(C)c(NC(=O)c2cc(C(F)(F)F)nn2-c2ncccc2Cl)c(C(=O)NNC(=O)OC)c1 [A-04]	100	100	100		2.65		100	100	
CON=Cc1cc(C)c(NC(=O)c2cc(C(F)(F)F)nn2-c2ncccc2Cl)c(C(=O)N(C)NC(=O)Oc2ccccc2)c1 [A-26]			100	90	3.72				
CNC(=O)c1cc(C=NOC)cc(C)c1NC(=O)c1cc(OCC(F)F)nn1-c1ncccc1Cl [C-20]	83	90	100				100	100	2.57
CON=Cc1cc(C)c(NC(=O)c2cc(C(F)F)nn2-c2ncccc2Cl)c(C(=O)NC2CC2)c1 [C-34]	100	100	100				100	100	2.72
COCC(C)NC(=O)c1cc(C=NOC)cc(C)c1NC(=O)c1cc(OC)nn1-c1ncccc1Cl (centres unmarked) [C-41]		100	100	90					2.51
CCNC(=O)c1cc(C=NOC)cc(C)c1NC(=O)c1cc(OCC(F)F)nn1-c1ncccc1Cl [C-46]		100	100				100	100	2.81
C#CCNC(=O)c1cc(C=NOC)cc(C)c1NC(=O)c1cc(CF)nn1-c1ncccc1Cl [C-57]	100	90	100						2.38
COCCNC(=O)c1cc(C=NOC)cc(C)c1NC(=O)c1cc(C(F)F)nn1-c1ncccc1Cl [C-59]	100	90	100						2.53
COCC(C)NC(=O)c1cc(C=NOC)cc(C)c1NC(=O)c1cc(C(F)F)nn1-c1ncccc1Cl (centres unmarked) [C-60]	100	100	100						2.84
C#CCNC(=O)c1cc(C=NOC)cc(C)c1NC(=O)c1cc(C(F)F)nn1-c1ncccc1Cl [C-62]	100	90	100						2.69
CCNC(=O)c1cc(C=NOC)cc(C)c1NC(=O)c1cc(C(F)F)nn1-c1ncccc1Cl [C-63]	100	100	100						2.71
